Experiments:
Format in all cases: in vivo, rat
[1] = tested on: naïve rats; experiment: Topical application to paws of naïve rats, behavioural reflex testing (PWL, PWT); details: topical cinnamaldehyde 1.5 mM; bilateral
Method: (§1) Thermal sensitivity was assessed by measuring paw withdrawal latency (PWL, s) in response to a noxious thermal stimulus (Hargreaves' thermal stimulator, Linton Instrumentation, Diss, UK) directed to the hindpaw mid-plantar glabrous surface. Mechanical sensitivity was recorded as the paw withdrawal threshold (PWT, mN/mm^2) to calibrated von Frey filaments (Stoelting, Ill., US), as previously described^[39]. Sensitivity to noxious cold was assessed by placing animals in a waterbath with an aluminium floor containing 1 cm deep 4° C. water and counting the time the paw was held suspended over a 20 s period.
(§2) Icilin was applied at concentrations of 2.5-500 μM (in water with 0.2% DMF), by placing CCI or naïve rats unrestrained for 5 min in a 1 cm deep waterbath (sufficient to cover paws), which was thermostatically controlled to a temperature of 30° C., or by very lightly anaesthetising rats and immersing hindpaws in small tubes containing 5 ml icilin (500 μM-5 mM, with a vehicle of 45% dimethylformamide in 0.2% aqueous Tween 80) for 5 min, followed by sensory testing for 60-80 mins. The effects of (−)-menthol and its stereoisomers isomenthol (1S,2R,5R-menthol,) and (+)-menthol (1S,2R,5S(+)-menthol) (4-16 mM in 80% ethanol) were also assessed. Relevant vehicles were always assessed in similar experiments. As a contrast, the effect of cinnamaldehyde (1.5 mM in water) and the effect of cinnamaldehyde with additional icilin (80 μM in water with 0.2% DMF) were assessed in naïve animals. The effects of icilin (80 μM) were further assessed in CCI animals that had undergone antisense and mis-sense treatment for knockdown of TRPM8 or immediately following intrathecal injection of either LY 341495 or UBP 1112. […] The effects of brief paw immersion at different temperatures (10-22° C. for 5 min) on CCI rats were assessed by mechanical testing. The effects of intrathecal LY 341495 or UBP 1112 on the reversal of ipsilateral sensitisation in CCI following a 16° C. cool challenge for 5 min were measured. Reflex testing commenced 5 minutes following challenge, unless animals had been anaesthetised, in which case 15 minutes was allowed for recovery. Six replicate animals were tested in all pharmacological experiments.

[2] = tested on: rats with chronic constriction injury (CCI) to sciatic nerve; experiment: Intrathecal application in CCI rats, behavioural reflex testing (PWL, PWT); details: for mean percentage reversal of sensitisation by (−)-menthol with antagonist, PWL / mean percentage reversal of sensitisation by (−)-menthol with antagonist, PWT: (−)-menthol 200 nmol plus intrathecal antagonist, 20-30 minutes post-injection; for effect on analgesia by intrathecal icilin: LY 341495 5 nmol, UBP 1112 10 nmol co-administered with icilin 10 nmol; for effect of antagonist alone: intrathecal, data not shown
Method: Pain models were generated under halothane anaesthesia (Zeneca, Cheshire, UK). For the chronic constriction injury (CCI) model of neuropathic pain, four ligatures were tied loosely to constrict the sciatic nerve at mid-thigh level (as described previously^[39]). An inflammatory pain model was generated by injecting 100 μl of Complete Freund's Adjuvant (CFA, Sigma-Aldrich Ltd) into the ventral surface of the right hindpaw^[39]. A model of peripheral demyelination-induced pain was produced by focal application of lysolecithin to the sciatic nerve^[40]. Peak behavioural sensitisation was observed post-surgically between days 10-16 for CCI, 1-3 for CFA, and 7-14 for lysolecithin, when pharmacological and electrophysiological experiments and tissue removal were conducted.
as §1
(§3) The following drugs were applied intrathecally in a 50 μl volume of saline-based vehicle at 37° C.: icilin (2.5-200 μM in saline with 0.2% dimethylformamide, DMF), LY 341495 (100 μM in saline), UBP 1112 (200 μM in saline), 2R,4R-APDC ((2R, 4R)-4-aminopyrrolidine-2,4-dicarboxylate), 300 μM in saline), ACPT-III ((1R,3R,4S)-1-aminocyclopentane-1,3,4-tricarboxylic acid), 3 mM in saline), AP-4, ((L-(1)-2-amino-4-phosphonobutyric acid), 3 mM in saline), naloxone (0.5 mM in saline), NMDA (75 μM in saline) and ACPC (1-aminocyclopropanecarboxylic acid, 15 μM in saline) (Tocris Cookson, Bristol, UK), (−)-menthol (1R,2S,5R-(−)-menthol, 4 mM in saline), cinnamaldehyde (1.5 mM in saline) and Ruthenium Red (5 μM in saline) (Sigma-Aldrich Co. Ltd, UK) and allicin (0.5 mM in saline with 0.5% DMF) and diallyl disulphide (DADS, 1 mM in saline with 0.5% DMF) (LKT Laboratories Inc., St Paul, Minn., USA). Drugs were injected into the L5/6 intrathecal space under brief halothane anaesthesia, using a 25-gauge needle microsyringe (BD Biosciences, Oxford, UK), as described previously^[39] in animals that were at peak levels of behavioural sensitisation. Behavioural reflex testing commenced 15 min following injection to allow recovery from anaesthesia^[40,41,42] and continued every 5 min thereafter until readings returned to baseline levels (n=6 in each case). We, and others^[40,41,42] find complete recovery from anaesthetic by 15 minutes. All appropriate controls were carried out to eliminate the possibility of effects due to vehicle or to injection procedure.
(§4) The TRPM8 channel activators, icilin and (−)-menthol were tested in CCI and naïve animals. The effects of icilin were additionally assessed in animals with CFA-induced inflammation or with lysolecithin-induced demyelination. Icilin was also co-administered with the μ-opioid receptor antagonist naloxone, the Group II metabotropic glutamate receptor (mGluR) antagonist, LY 341495, or the Group III mGluR antagonist, UBP 1112. The effects of these antagonists alone as well as effects of the Group II mGluR agonist, 2R,4R-APDC and the Group III mGluR agonists, ACPT-III and AP-4, were assessed in CCI animals. The TRPA1 channel activator, cinnamaldehyde, alone and with icilin, was tested in CCI animals and in naïve animals. Further TRPA1 channel activators, allicin and diallyl disulphide were assessed in naïve animals. Both icilin and cinnamaldehyde effects in CCI animals were also investigated in the additional presence of Ruthenium Red.

[3] = tested on: rats sensitised by the TRPA1 activator cinnamaldehyde; experiment: Cinnamaldehyde-induced sensitisation and its reversal by icilin (PWL, PWT); details: difference from prior baseline, no icilin
Method: as §1, §3, §4
Icilin was applied at concentrations of 2.5-500 μM (in water with 0.2% DMF), by placing CCI or naïve rats unrestrained for 5 min in a 1 cm deep waterbath (sufficient to cover paws), which was thermostatically controlled to a temperature of 30° C., or by very lightly anaesthetising rats and immersing hindpaws in small tubes containing 5 ml icilin (500 μM-5 mM, with a vehicle of 45% dimethylformamide in 0.2% aqueous Tween 80) for 5 min, followed by sensory testing for 60-80 mins. The effects of (−)-menthol and its stereoisomers isomenthol (1S,2R,5R-menthol,) and (+)-menthol (1S,2R,5S(+)-menthol) (4-16 mM in 80% ethanol) were also assessed. Relevant vehicles were always assessed in similar experiments. As a contrast, the effect of cinnamaldehyde (1.5 mM in water) and the effect of cinnamaldehyde with additional icilin (80 μM in water with 0.2% DMF) were assessed in naïve animals. […]

[4] = tested on: naïve rats; experiment: Intrathecal application in naïve rats, behavioural reflex testing (PWL, PWT); details: naïve animals, cinnamaldehyde 75 nmol, allicin 25 nmol, diallyl disulphide 50 mmol
Method: as §1, §3, §4

[5] = tested on: rats with chronic constriction injury (CCI); experiment: Cooling (16° C.)-induced analgesia in CCI rats with intrathecal mGluR antagonists; details: skin cooling to 16° C.; intrathecal LY 341495 5 nmol or UBP 1112 10 nmol
Method: as §2, with “Reflex testing commenced 5 minutes following challenge, unless animals had been anaesthetised, in which case 15 minutes was allowed for recovery. Six replicate animals were tested in all pharmacological experiments.” left out

[6] = tested on: rats with chronic constriction injury (CCI) to sciatic nerve; experiment: Topical application to paws of CCI rats, behavioural reflex testing (thermal PWL, mechanical PWT); details: icilin 200 μM topical; mGluR antagonists intrathecally
[7] = tested on: dorsal horn neurons; experiment: Extracellular recordings of single spinal dorsal horn neurons in CCI animals (brush-evoked firing)
Method: Peripheral: Recordings of saphenous (sensory) nerve were made in naïve animals (n=7) to assess the effects of topical icilin on primary afferents. In addition, recordings were carried out on animals which had undergone TRPM8 antisense or mis-sense treatment beginning 4-5 days previously. Rats were anaesthetised (with 0.6 ml 25% urethane/100 g, i.p.) and the saphenous nerve was exposed and dissected from its associated vein and artery. Further dissection under liquid paraffin enabled identification of afferent preparations comprising a small number of fibres. The conduction velocity of single identified afferent fibres was determined using bipolar electrodes and the peripheral stimulus technique^[43]. Following isolation of preparations, icilin (200 μM in water with 0.2% DMF), (−)-menthol (4 mM in 25% ethanol) resiniferatoxin (1 mM in ethanol) or vehicle alone were applied to the hindlimb receptive fields and neuronal responses recorded using the Chart programme (version 3.6). Central: Recordings of spinal dorsal horn neurons were made in CCI animals, as described previously^[39]. Following halothane induction, the jugular vein and trachea were canulated and intravenous anaesthetic delivered: α-chloralose ([…], Fisher) and urethane ([…], Sigma), with small supplementary doses of α-chloralose as required throughout the experiment. Core body temperature was maintained at 37-38° C. by means of a thermostatically controlled heated blanket. The animal was placed in a stereotaxic frame, and the thoracolumbar spinal column was supported using three pairs of swan-necked clamps. A laminectomy was performed at L2-L5, and agar (2% in saline at 37° C.) was delivered over exposed cord to increase mechanical stability. Above the recording region the agar and spinal cord dura were removed and liquid paraffin poured into the pool. Extracellular recordings were made from single multireceptive neurons in laminae I-IV through the centre barrel of a seven-barrelled glass microelectrode filled with 4M NaCl (tip-diameter […], DC resistance 5-8 MΩ). The receptive fields of hair-follicle innervated neurons on the distal hindlimb were identified by an innocuous brush stimulus^[39]. Icilin (200 μM in water with 0.2% DMF) was applied peripherally to the receptive field of individual recorded neurons, and the effect on neuronal response to a rotating brush was recorded and analysed using Spike2 programme (Version 3.2, CED). The Group III mGluR antagonist UBP 1112 (20 mM in water), pH 8.5, and control 1M NaCl, pH 8.5 were ionophoresed from the side barrels of the electrode using currents of between 20 nA and 80 nA (Neurophore BH2 ionophoresis system, Medical Systems, Great Neck, N.Y.) to measure effects on neuronal response to icilin.

O=CC=Cc1ccccc1 [cinnamaldehyde]
mean decrease in PWL [1]: 32.0±8.6%
mean decrease in PWT [1]: 20.2±8.2%
reflex responsiveness in thermal and mechanical tests ([2]; cinnamaldehyde 75 nmol intrathecal, contralateral as well as ipsilateral to nerve injury): significantly increased reflex responsiveness
PWL (s) difference from control (no drug) ([3]; cinnamaldehyde intrathecal): 5.9 ± 0.9 s
PWT (mN/mm^2) difference from control (no drug) ([3]; cinnamaldehyde intrathecal): 2022.6 ± 375.4 mN/mm^2
PWL (s) difference from control (no drug) ([3]; cinnamaldehyde topical): 5.0 ± 1.5 s
PWT (mN/mm^2) difference from control (no drug) ([3]; cinnamaldehyde topical): 1002.0 ± 316.8 mN/mm^2
reduction in PWL [4]: 36.9±7.9%
reduction in PWT [4]: 41.9±6.7%

C=CCS[S+]([O-])CC=C (stereo not shown) [allicin]
reduction in PWL [4]: 33.2±5.9%
reduction in PWT [4]: 20.7±8.2%

N[C@](CC1c2ccccc2Oc2ccccc21)(C(=O)O)[C@H]1C[C@@H]1C(=O)O [LY 341495]
mean percentage reversal of ipsilateral CCI-induced reductions in PWT caused by cooling [5]: 0.0±0.0%
effect on reversal of thermal and mechanical sensitisation by topical icilin [6]: prevented
mean percentage reversal of sensitisation by (−)-menthol with antagonist, PWL [2]: 22.0±6.9%
mean percentage reversal of sensitisation by (−)-menthol with antagonist, PWT [2]: 7.1±7.1%
effect on analgesia by intrathecal icilin [2]: prevented the effect of icilin
effect of antagonist alone [2]: Neither LY 341495 nor UBP 1112 had any effects alone

Cc1cc(C(C)(N)C(=O)O)ccc1P(=O)(O)O (stereo not shown) [UBP 1112]
mean percentage reversal of ipsilateral CCI-induced reductions in PWT caused by cooling [5]: 0.0±0.0%
effect on reversal of thermal and mechanical sensitisation by topical icilin [6]: prevented
brush-induced firing rate with icilin plus UBP 1112 ([7]; UBP 1112 ionophoresed at 20-60 nA, icilin 200 μM topical): 80.2±9.3 % of control values
effect of UBP 1112 alone on neuronal responses ([7]; ionophoresis): had no effect alone
mean percentage reversal of sensitisation by (−)-menthol with antagonist, PWL [2]: 9.2±6.9%
mean percentage reversal of sensitisation by (−)-menthol with antagonist, PWT [2]: 0.0±0.0%
effect on analgesia by intrathecal icilin [2]: prevented the effect of icilin
effect of antagonist alone [2]: Neither LY 341495 nor UBP 1112 had any effects alone

Reference: patent US20100137344A1, “INDUCTION OF ANALGESIA IN NEUROPATHIC PAIN” (University Court of the University of Edinburgh, priority 2006, published 2010)
